Tests used:
adenosine A1 receptor = target: T1, adenosine A1 receptor (Mus musculus, UniProt Q60612); assay: Metabolic state induced by IP CHA in wild-type mice; format: in vivo
T1 construct: endogenous in cells; host or cells: whole mouse, in vivo (intraperitoneal CHA)
T1 sequence (Q60612 1-326): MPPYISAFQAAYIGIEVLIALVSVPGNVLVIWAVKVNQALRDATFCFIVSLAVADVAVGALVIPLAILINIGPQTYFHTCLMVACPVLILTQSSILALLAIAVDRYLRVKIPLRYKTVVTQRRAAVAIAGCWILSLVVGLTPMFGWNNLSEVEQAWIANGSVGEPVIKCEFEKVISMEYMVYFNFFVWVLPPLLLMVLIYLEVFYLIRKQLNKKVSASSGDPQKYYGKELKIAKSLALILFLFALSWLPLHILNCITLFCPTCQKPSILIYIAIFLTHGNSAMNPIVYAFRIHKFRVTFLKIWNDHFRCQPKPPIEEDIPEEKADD
Text: In order to record the core body temperature, oxygen consumption amount, EEG, ECG, and respiratory patterns, each animal was housed in a temperature controlled chamber (HC-100, Shin Factory or LP-400P-AR, Nippon Medical & Chemical Instruments Co., Ltd.). In order to continuously record the TB (intraperitoneal temperature), a telemetry temperature sensor (TA11TA-F10, DSI) was implanted into the animal's abdominal cavity under general inhalation anesthesia at least 7 days prior to the recording. The VO 2 and carbon dioxide discharge rate (VCO2) of the animal were continuously recorded using a respiratory gas analyzer (ARCO-2000 mass spectrometer, ARCO System). The respiratory quotient was calculated from the ratio of VCO2/VO2.
The Dreadd agonist CNO (clozapine N-oxide, Abcam, ab141704) was dissolved in physiological saline at a dose of 100 μg/mL, and the solution was frozen at −20° C. The CNO solution was thawed on site and then administered to each mouse intraperitoneally at a dose of 1 mg/kg. The adenosineAl receptor agonist CHA (N^6-cyclohexyl adenosine, Sigma-Aldrich, C9901) was dissolved in physiological saline at a concentration of 250 μg/mL, and the solution was administered intraperitoneally to each mouse at a dose of 2.5 mg/kg.

[1] = administered centrally; cited from earlier work

Compound | induction of hypothermic/hypometabolic state (adenosine A1 receptor; IP 2.5 mg/kg, wild-type mice) | reaction to low TA through behavior (posture and shivering) or increase in VO2 (adenosine A1 receptor; TA 12° C., IP 2.5 mg/kg) | TB and VO2 at lowered TA (adenosine A1 receptor; TA set to 12° C.) | TB compared with QIH (adenosine A1 receptor; at 20°) | heart rate and blood pressure [1] | sympathetic nerve outflow [1]
OC[C@H]1O[C@@H](n2cnc3c(NC4CCCCC4)ncnc32)[C@H](O)[C@@H]1O [CHA, N^6-cyclohexyl adenosine] | effectively induced a hypothermic/hypometabolic state | did not react | further reduced | tends to be higher |  | 
pyroglutamylated RFamide peptide (QDEGSEATGFLPAAGEKTSGPLGNLAEELNGYSRKKGGFSFRF; QRF-amide; UniProt P83859 91-133, looked up) [Qrfp, hypothalamic neuropeptide, endogenous ligand of the orphan G-protein-coupled receptor hGPR103] |  |  |  |  | increase | increases

Source: patent publication US20220323761A1, “METHOD FOR INDUCING HIBERNATION-LIKE STATE AND DEVICE SAME” (University of Tsukuba, priority 2019, published 2022)
